According to patent US6004934A, “Tetrapeptide derivative” (Teikoku Hormone Mfg. Co., Ltd., priority 1991, dated 1999):
≈ marks a conversion by molar mass, not a printed value.

Tested on: lymphocytic leukemia P388 cells
Experiment: screening of cytostatic activity using lymphocytic leukemia P388 cells
Format: cell-based
Text: The screening of cytostatic activity was made using lymphocytic leukemia P388 cells.

Compound: CC[C@H](C)[C@@H]([C@@H](CC(=O)N1CCC[C@H]1[C@H](OC)[C@@H](C)C(=O)N[C@@H](Cc1ccccc1)c1nccs1)OC)N(C)C(=O)[C@@H](NC(=O)[C@H](C(C)C)N(C)C)C(C)C [Dolastatin 10]
- ED50: 0.7 ng/mL (≈ 0.892 nM)
